Key:
Assay in all cases: relative viability (nuclei count vs DMSO), 5 days (fraction); higher = more cells survive
[1] = compound: Cn1cncc1[C@@](N)(c1ccc(Cl)cc1)c1ccc2c(c1)c(-c1cccc(Cl)c1)cc(=O)n2C [Tipifarnib]
How it was run: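 Viability here means nuclei in treated wells divided by nuclei in vehicle wells, reported as the median across plates. Only plates with control CV below 25% and at least one doubling passed. Lung cancer cell lines in 1536-well plates were exposed to five √10-spaced library-drug doses for 5 days and counted from 4× Hoechst images in MetaXpress.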

[2] = compound: Cn1cncc1[C@@](N)(c1ccc(Cl)cc1)c1ccc2c(c1)c(-c1cccc(Cl)c1)cc(=O)n2C [Tipifarnib] + CC(=O)Nc1cccc(-n2c(=O)n(C3CC3)c(=O)c3c(Nc4ccc(I)cc4F)n(C)c(=O)c(C)c32)c1 [Trametinib] (partner 0.02 µM)
How it was run: (§1)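 Lung cancer cell lines in 1536-well plates got either a single drug or a fixed anchor-drug dose together with five library-drug doses (not always all listed) in √10 steps, by pin tool, on the day after seeding. Nuclei were counted after 5 days, and relative viability is the treated-to-vehicle ratio of nuclei counts. Values are medians of duplicate plates.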

[3] = compound: Cn1cncc1[C@@](N)(c1ccc(Cl)cc1)c1ccc2c(c1)c(-c1cccc(Cl)c1)cc(=O)n2C [Tipifarnib] + Cc1cc(Nc2cc(N3CCN(C)CC3)nc(Sc3ccc(NC(=O)C4CC4)cc3)n2)n[nH]1 [Tozasertib] (partner 0.1 µM)
How it was run: as §1

[4] = compound: Cn1cncc1[C@@](N)(c1ccc(Cl)cc1)c1ccc2c(c1)c(-c1cccc(Cl)c1)cc(=O)n2C [Tipifarnib] + NC(=O)Nc1cc(-c2cccc(F)c2)sc1C(=O)N[C@H]1CCCNC1 [AZD7762] (partner 0.2 µM)
How it was run: as §1

Row | Cell Line | relative viability ([1]; 0.01 µM) | relative viability ([1]; 0.03162 µM) | relative viability ([1]; 0.1 µM) | relative viability ([1]; 0.3162 µM) | relative viability ([1]; 1 µM) | relative viability ([2]; first compound 0.01 µM) | relative viability ([2]; first compound 0.03162 µM) | relative viability ([2]; first compound 0.1 µM) | relative viability ([2]; first compound 0.3162 µM) | relative viability ([2]; first compound 1 µM) | relative viability ([3]; first compound 0.01 µM) | relative viability ([3]; first compound 0.03162 µM) | relative viability ([3]; first compound 0.1 µM) | relative viability ([3]; first compound 0.3162 µM) | relative viability ([3]; first compound 1 µM) | relative viability ([4]; first compound 0.01 µM) | relative viability ([4]; first compound 0.03162 µM) | relative viability ([4]; first compound 0.1 µM) | relative viability ([4]; first compound 0.3162 µM) | relative viability ([4]; first compound 1 µM)
1 | HCC-15 | 0.846 | 0.835 | 0.699 | 0.551 | 0.271 | 0.36 | 0.35 | 0.273 | 0.258 | 0.221 | 0.242 | 0.227 | 0.227 | 0.153 | 0.174 | 1.12 | 0.998 | 0.758 | 0.799 | 0.236
2 | NCI-H647 | 0.883 | 0.807 | 0.727 | 0.404 | 0.196 | 0.475 | 0.419 | 0.418 | 0.254 | 0.225 | 0.21 | 0.126 | 0.178 | 0.101 | 0.14 | 0.405 | 0.48 | 0.308 | 0.116 | 0.0944
3 | NCI-H1651 | 1.02 | 0.992 | 1.05 | 0.992 | 0.877 | 0.827 | 0.754 | 0.781 | 0.832 | 0.802 | 0.927 | 0.649 | 0.615 | 0.575 | 0.711 | 0.536 | 0.467 | 0.524 | 0.44 | 0.363
4 | NCI-H1734 | 0.92 | 0.865 | 0.789 | 0.559 | 0.448 | 0.66 | 0.555 | 0.556 | 0.478 | 0.407 | 0.294 | 0.26 | 0.247 | 0.215 | 0.239 | 0.537 | 0.46 | 0.403 | 0.352 | 0.257
5 | NCI-H3122 | 1.02 | 0.977 | 0.949 | 0.704 | 0.44 | 0.244 | 0.215 | 0.213 | 0.211 | 0.185 | 0.372 | 0.27 | 0.277 | 0.196 | 0.183 | 0.967 | 0.971 | 0.714 | 0.556 | 0.348
6 | CAL-12T | 0.937 | 0.82 | 0.617 | 0.549 | 0.391 | 0.359 | 0.289 | 0.234 | 0.222 | 0.177 | 0.277 | 0.278 | 0.241 | 0.188 | 0.246 | 0.635 | 0.549 | 0.62 | 0.408 | 0.425
7 | HCC-78 | 1 | 0.948 | 0.808 | 0.768 | 0.633 | 0.966 | 0.766 | 0.647 | 0.623 | 0.664 | 0.403 | 0.371 | 0.388 | 0.32 | 0.297 | 0.772 | 0.811 | 0.483 | 0.511 | 0.415
8 | NCI-H2085 | 1.04 | 0.82 | 0.708 | 0.661 | 0.723 | 0.58 | 0.603 | 0.44 | 0.408 | 0.366 | 0.723 | 0.663 | 0.468 | 0.437 | 0.617 | 0.979 | 0.73 | 0.67 | 0.478 | 0.552
